# System: Cochliobolus miyabeanus
# Experiment: Activity against brown spot of rice caused by Cochliobolus miyabeanus, protective application
# Format: in vivo
# Settings: individual active compound, inoculated next day, assessed after six days
# Method: The active compounds, separately or jointly, were prepared as a stock solution with 0.25% by weight of active compound in acetone or DMSO. 1% by weight of the emulsifier Uniperol® EL (wetting agent having emulsifying and dispersing action based on ethoxylated alkylphenols) was added to this solution, and the solution was diluted with water to the desired concentration.
# Use Example—Activity Against Brown Spot of Rice Caused by Cochliobolus Miyabeanus, Protective Application
# Leaves of potted rice seedlings of the cultivar “Tai-Nong 67” were sprayed to runoff point with an aqueous suspension of the concentration of active compound stated below. The next day, the plants were inoculated with an aqueous spore suspension of Cochliobolus miyabeanus. The test plants were then placed in climatized chambers at 22-24° C. and 95-99% relative atmospheric humidity for six days. The extent of the development of the infection on the leaves was then determined visually.
# Evaluation was carried out by determining the percentage of infected plants. These percentages were converted into efficacies.
# The efficacy (E) is calculated as follows using Abbot's formula: E=(1−α/β)·100 • α corresponds to the fungicidal infection of the treated plants in % and • β corresponds to the fungicidal infection of the untreated (control) plants in %
# An efficacy of 0 means that the infection level of the treated plants corresponds to that of the untreated control plants; an efficacy of 100 means that the treated plants are not infected.
# The expected efficacies of mixtures of active compounds are determined using Colby's formula (R.S. Colby, Weeds, 15, 20-22, 1967) and compared with the observed efficacies.
# Colby's Formula: E=x+y−x·y/100 • E expected efficacy, expressed in % of the untreated control, when using the mixture of the active compounds A and B at the concentrations a and b • x efficacy, expressed in % of the untreated control, when using the active compound A at the concentration a • y efficacy, expressed in % of the untreated control, when using the active compound B at the concentration b
SMILES,Efficacy in % of the untreated control (4 ppm in the spray liquor) [%],Efficacy in % of the untreated control (1 ppm in the spray liquor) [%]
CC1CCN(c2c(-c3c(F)cccc3Cl)c(Cl)nc3ncnn23)CC1 [A],44,–
C[C@H](Nc1c(-c2c(F)cc(F)cc2F)c(Cl)nc2ncnn12)C(F)(F)F [B],44,–
"CC1CCN(c2c(-c3c(F)cc(F)cc3F)c(Cl)nc3ncnn23)CC1 [I, 5-chloro-7-(4-methylpiperidin-1-yl)-6-(2,4,6-trifluorophenyl)-[1,2,4]triazolo[1,5-a]pyrimidine]",33,–
"CC1=C(C(=O)Nc2ccccc2)SCCO1 [II (carboxin), N-phenyl-2-methyl-5,6-dihydro-[1,4]oxathiine-3-carboxamide]",0,0
